Data reported in PubChem BioAssay AID330 (DTP/NCI, 2004).
Where “and” joins values, the source holds several entries; their conditions need not be identical. Identical values can stand only once. Toxic doses and inconclusive results are not listed. How the source made its calls: active means survival T/C of 150% or more; inactive means T/C below 125% in these data.

Tested on: P388 leukemia ip, CD2F1 mice, survival T/C
Assay: NCI In Vivo Anticancer Drug Screen. Data for tumor model P388 Leukemia (intraperitoneal) in CD2F1 (CDF1) mice
Conditions: endpoint: median survival time, higher = longer survival
Summary of the method: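 Mice carrying the transplanted tumor received test compound or vehicle. Survival was recorded in each group, and the value is the treated-group measurement divided by that of the vehicle-treated control group.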

[1] = dose: 15.0 mg/kg/injection, schedule: Q01DX005 (ip), vehicle: saline with Tween-80
[2] = dose: 30.0 mg/kg/injection, schedule: Q01DX005 (ip), vehicle: saline with Tween-80
[3] = dose: 60.0 mg/kg/injection, schedule: Q01DX005 (ip), vehicle: saline with Tween-80
[4] = dose: 120.0 mg/kg/injection, schedule: Q01DX005 (ip), vehicle: saline with Tween-80
[5] = dose: 240.0 mg/kg/injection, schedule: Q01DX005 (ip), vehicle: saline with Tween-80
[6] = dose: 100.0 mg/kg/injection, schedule: Q01DX005 (ip), vehicle: saline with Tween-80
[7] = dose: 200.0 mg/kg/injection, schedule: Q01DX005 (ip), vehicle: saline with Tween-80
[8] = dose: 100.0 mg/kg/injection, schedule: Q04DX003 (ip), vehicle: Klucel (hydroxypropylcellulose) (HPC)
[9] = dose: 200.0 mg/kg/injection, schedule: Q04DX003 (ip), vehicle: Klucel (hydroxypropylcellulose) (HPC)
[10] = dose: 50.0 mg/kg/injection, schedule: Q01DX009 (ip), vehicle: saline with Tween-80
[11] = dose: 100.0 mg/kg/injection, schedule: Q01DX009 (ip), vehicle: saline with Tween-80
[12] = dose: 200.0 mg/kg/injection, schedule: Q01DX009 (ip), vehicle: saline with Tween-80
[13] = dose: 100.0 mg/kg/injection, schedule: Q01DX001 (ip), vehicle: saline with Tween-80
[14] = dose: 400.0 mg/kg/injection, schedule: Q01DX001 (ip), vehicle: saline with Tween-80
[15] = dose: 50.0 mg/kg/injection, schedule: Q01DX005 (ip), vehicle: saline with Tween-80

Measured: T/C

CCOC(=O)c1cc(/C=C/c2cccc(Cl)c2)on1
inactive: [1] 93 % of control | [2] 100 % of control and 90 % of control | [3] 90 % of control | [4] 93 % of control | [5] 95 % of control

COC(=O)C(CSCc1ccccc1)NC(=O)CCNC(=O)OCc1ccccc1 (stereo not drawn)
inactive: dose: 25.0 mg/kg/injection, schedule: Q01DX009 (ip), vehicle: other 103 % of control | dose: 50.0 mg/kg/injection, schedule: Q01DX009 (ip), vehicle: other 103 % of control | dose: 100.0 mg/kg/injection, schedule: Q01DX009 (ip), vehicle: other 96 % of control | dose: 200.0 mg/kg/injection, schedule: Q01DX009 (ip), vehicle: other 90 % of control | dose: 400.0 mg/kg/injection, schedule: Q01DX009 (ip), vehicle: other 97 % of control

Nc1c(C(=O)NCc2ccccc2)c2nc3c(C(=O)NCc4ccccc4)cccc3oc-2cc1=O
inactive: dose: 1.56 mg/kg/injection, schedule: Q01DX005 (ip), vehicle: saline with Tween-80 99 % of control | dose: 3.12 mg/kg/injection, schedule: Q01DX005 (ip), vehicle: saline with Tween-80 89 % of control | dose: 6.25 mg/kg/injection, schedule: Q01DX005 (ip), vehicle: saline with Tween-80 89 % of control | [6] 86 % of control | [7] 100 % of control

O=C(CC(O)(c1ccccc1)c1ccccc1)Sc1ccccc1
inactive: [8] 110 % of control | [9] 105 % of control | dose: 400.0 mg/kg/injection, schedule: Q04DX003 (ip), vehicle: Klucel (hydroxypropylcellulose) (HPC) 105 % of control

Cc1c(F)cccc1[N+](=O)[O-]
inactive: [10] 104 % of control | [11] 114 % of control | [12] 123 % of control

Clc1ccc2c(c1)CN1Cc3cc(Cl)ccc3C2C1
inactive: [13] 92 % of control | [14] 90 % of control

CCCCCCCCCCCCCCCC(=O)NCCCCC(N)C(=O)O (stereo not drawn)
inactive: dose: 50.0 mg/kg/injection, schedule: Q01DX009 (ip), vehicle: suspension in saline 94 % of control | dose: 100.0 mg/kg/injection, schedule: Q01DX009 (ip), vehicle: suspension in saline 98 % of control | dose: 200.0 mg/kg/injection, schedule: Q01DX009 (ip), vehicle: suspension in saline 96 % of control

NC1=NC(c2ccccc2O)CC(=O)N1 (stereo not drawn)
inactive: dose: 50.0 mg/kg/injection, schedule: Q01DX009 (ip), vehicle: saline 103 % of control | dose: 100.0 mg/kg/injection, schedule: Q01DX009 (ip), vehicle: saline 111 % of control | dose: 200.0 mg/kg/injection, schedule: Q01DX009 (ip), vehicle: saline 110 % of control

CC(C)(C)c1cc(C(c2cc3c(cc2O)OCO3)N2CCOCC2)cc(C(C)(C)C)c1O (stereo not drawn)
inactive: [3] 102 % of control and 111 % of control and 112 % of control | [4] 105 % of control and 111 % of control and 115 % of control | [5] 104 % of control | dose: 480.0 mg/kg/injection, schedule: Q01DX005 (ip), vehicle: saline with Tween-80 123 % of control

O=C(O)CCCCCCCCCCNC(=O)CCl
inactive: dose: 50.0 mg/kg/injection, schedule: Q01DX009 (ip), vehicle: Klucel (hydroxypropylcellulose) (HPC) 88 % of control | dose: 100.0 mg/kg/injection, schedule: Q01DX009 (ip), vehicle: Klucel (hydroxypropylcellulose) (HPC) 91 % of control

CB1NN=C(C)c2sccc21
inactive: dose: 25.0 mg/kg/injection, schedule: Q01DX009 (ip), vehicle: saline with Tween-80 102 % of control | [10] 103 % of control | [11] 86 % of control

CCCCCCCOCC(=O)OC
inactive: [10] 109 % of control | [11] 108 % of control | [12] 101 % of control

O=C1CSC(=S)N1c1ccc(C(F)(F)F)cc1
inactive: dose: 25.0 mg/kg/injection, schedule: Q01DX001 (ip), vehicle: Klucel (hydroxypropylcellulose) (HPC) 93 % of control | dose: 50.0 mg/kg/injection, schedule: Q01DX001 (ip), vehicle: Klucel (hydroxypropylcellulose) (HPC) 99 % of control | dose: 100.0 mg/kg/injection, schedule: Q01DX001 (ip), vehicle: Klucel (hydroxypropylcellulose) (HPC) 110 % of control

O=c1oc2c(cc1-c1ccccc1)CCCC2
inactive: dose: 50.0 mg/kg/injection, schedule: Q01DX005 (ip), vehicle: Klucel (hydroxypropylcellulose) (HPC) 102 % of control | dose: 100.0 mg/kg/injection, schedule: Q01DX005 (ip), vehicle: Klucel (hydroxypropylcellulose) (HPC) 104 % of control | dose: 200.0 mg/kg/injection, schedule: Q01DX005 (ip), vehicle: Klucel (hydroxypropylcellulose) (HPC) 103 % of control

CCCCC1=C(O)c2ccccc2C(=NC(CO)(CO)CO)C1=O
inactive: [15] 103 % of control | [6] 110 % of control | [7] 100 % of control

CCN(CC)/C([Se])=N/N=C(\C)c1ccccn1
inactive: [8] 108 % of control | [9] 102 % of control

Cn1c(=O)c2cc(C#N)c(N)nc2n(C)c1=O
inactive: dose: 75.0 mg/kg/injection, schedule: Q01DX009 (ip), vehicle: saline with Tween-80 104 % of control | dose: 150.0 mg/kg/injection, schedule: Q01DX009 (ip), vehicle: saline with Tween-80 96 % of control | dose: 300.0 mg/kg/injection, schedule: Q01DX009 (ip), vehicle: saline with Tween-80 93 % of control

O=C(O)c1cccnc1C(=O)Nc1cccc2ccccc12
inactive: [1] 102 % of control | [2] 98 % of control | [3] 99 % of control (2×) and 93 % of control | [5] 86 % of control and 92 % of control

COc1ccc2c(c1)CCC(C(O)C1(Sc3c(OC)cccc3OC)CC1)C2=O (stereo not drawn)
inactive: [15] 100 % of control | [6] 100 % of control | [7] 100 % of control

Nn1c(-c2ccc(Cl)c(Cl)c2)nc2ccccc2c1=O
inactive: [10] 89 % of control | [11] 99 % of control | [12] 98 % of control

CP1(C)=NP(C)(C)=NP(C)(C)=NP(C)(C)=N1.[Cl][Pt]([Cl])([Cl])[Cl]
inactive: dose: 6.25 mg/kg/injection, schedule: Q04DX003 (ip), vehicle: saline with Tween-80 106 % of control | dose: 12.5 mg/kg/injection, schedule: Q04DX003 (ip), vehicle: saline with Tween-80 106 % of control and 107 % of control | dose: 25.0 mg/kg/injection, schedule: Q04DX003 (ip), vehicle: saline with Tween-80 110 % of control | dose: 50.0 mg/kg/injection, schedule: Q04DX003 (ip), vehicle: saline with Tween-80 120 % of control and 122 % of control | dose: 100.0 mg/kg/injection, schedule: Q04DX003 (ip), vehicle: saline with Tween-80 118 % of control

COC(=O)C1(C(=O)OC)CCCC2=NOC3CCC1C23 (stereo not drawn)
inactive: dose: 6.25 mg/kg/injection, schedule: Q01DX002 (ip), vehicle: Klucel (hydroxypropylcellulose) (HPC) 107 % of control | dose: 12.5 mg/kg/injection, schedule: Q01DX002 (ip), vehicle: Klucel (hydroxypropylcellulose) (HPC) 100 % of control | dose: 25.0 mg/kg/injection, schedule: Q01DX002 (ip), vehicle: Klucel (hydroxypropylcellulose) (HPC) 93 % of control

COc1ccc2c(c1)OC/C(=C\c1ccc([N+](=O)[O-])o1)C2=O
inactive: [11] 91 % of control | [12] 86 % of control | dose: 400.0 mg/kg/injection, schedule: Q01DX009 (ip), vehicle: saline with Tween-80 92 % of control

CC(=O)O[C@H]1CC[C@]2(C=O)[C@H]3CC[C@]4(C)[C@@H](C5=CC(=O)OC5)CC[C@]4(O)[C@@H]3CC[C@]2(O)C1
inactive: dose: 12.5 mg/kg/injection, schedule: Q04DX002 (ip), vehicle: saline 94 % of control | dose: 25.0 mg/kg/injection, schedule: Q04DX002 (ip), vehicle: saline 94 % of control | dose: 50.0 mg/kg/injection, schedule: Q04DX002 (ip), vehicle: saline 100 % of control | dose: 100.0 mg/kg/injection, schedule: Q04DX002 (ip), vehicle: saline 91 % of control

O=C1CSC(c2ccccc2O)N1c1nc(-c2ccc(Cl)cc2)cs1 (stereo not drawn)
inactive: [13] 100 % of control | dose: 200.0 mg/kg/injection, schedule: Q01DX001 (ip), vehicle: saline with Tween-80 98 % of control | [14] 87 % of control

COc1ccc(C(=O)CCN(C)C)c(OC)c1
inactive: dose: 15.0 mg/kg/injection, schedule: Q01DX005 (ip), vehicle: saline 102 % of control | dose: 30.0 mg/kg/injection, schedule: Q01DX005 (ip), vehicle: saline 94 % of control | dose: 60.0 mg/kg/injection, schedule: Q01DX005 (ip), vehicle: saline 106 % of control and 109 % of control

CN1CCCC2c3ccccc3CCC21 (stereo not drawn)
inactive: dose: 12.5 mg/kg/injection, schedule: Q04DX003 (ip), vehicle: Klucel (hydroxypropylcellulose) (HPC) 104 % of control | dose: 25.0 mg/kg/injection, schedule: Q04DX003 (ip), vehicle: Klucel (hydroxypropylcellulose) (HPC) 101 % of control
